{
  "source": "paper PMC7217150",
  "about": "“Synthesis, Modification, and Biological Evaluation of a Library of Novel Water‐Soluble Thiopyridone‐Based Organometallic Complexes and Their Unexpected (Biological) Behavior” (Chemistry (Weinheim an Der Bergstrasse, Germany), 2020)",
  "type_in_all_cases": "cell-based, human",
  "key": {"SW480 [1]": {"system": "SW480", "assay": "MTT cytotoxicity assay, monolayer culture", "conditions": "Homo sapiens; SW480, MTT assay, exposure time 96 h, means ± SDs", "from_the_text": "(§1) A549 (non‐small cell lung carcinoma), SW480 and HCT‐116 (both colon carcinoma) were kindly provided by Brigitte Marian, Institute of Cancer Research, Department of Medicine I, Medical University of Vienna, Austria. The cell line CH1/PA‐1 (ovarian teratocarcinoma) was kindly provided by Lloyd R. Kelland (CRC Centre for Cancer Therapeutics, Institute of Cancer Research, Sutton, UK). All cell culture media (including supplements) and reagents were obtained from Sigma–Aldrich, and all plasticware from StarLab, unless indicated otherwise."}, "CH1/PA‐1 [2]": {"system": "CH1/PA‐1", "assay": "MTT cytotoxicity assay, monolayer culture", "conditions": "Homo sapiens; CH1/PA‐1, MTT assay, exposure time 96 h, means ± SDs", "from_the_text": "as §1"}, "A549": {"system": "A549", "assay": "MTT cytotoxicity assay, monolayer culture", "conditions": "Homo sapiens, exposure time 96 h, means ± SDs", "from_the_text": "as §1"}, "SW480 [3]": {"system": "SW480", "assay": "Cell cycle distribution, flow cytometry with propidium iodide", "conditions": "for Cell cycle distribution G1, % / Cell cycle distribution G2/M, % / Cell cycle distribution S, %: 24 h, mean ± SD; for Relative change in cell cycle distribution G1, % / Relative change in cell cycle distribution G2/M, % / Relative change in cell cycle distribution S, %: difference to untreated control", "description": "(§2) The influence of two ligands, as well as seven complexes on cell cycle distribution was tested in two of the cancer cell lines (SW480, CH1/PA‐1) by means of flow cytometry. The cell cycle distribution (G1, S, G2/M phase in %; Table S37) was investigated upon DNA staining with propidium iodide.\n(§3) CH1/PA‐1 and SW480 cells were harvested by trypsinization, 8×10^4 and 1.2×10^5 cells per well were seeded into 12‐well plates, respectively. The cells were allowed to attach and resume proliferation for 24 h after the seeding. […] After continuous exposure for 24 h at 37 °C and under 5 % CO2, the cells were harvested by trypsinization and centrifuged at 300 g for 3 min. The cells were washed with PBS (1 mL) and resuspended in propidium iodine (PI) containing HSF buffer (600 μL; 0.1 % Triton X‐100, 0.1 % sodium citrate, 50 μg mL^−1 PI in PBS). After incubation overnight at 4 °C in the dark, 5×10^3 cells were measured by flow cytometry with a Millipore Guava easyCyte 8HT instrument (Luminex, USA). Data were evaluated by means of FlowJo software (Tree Star) using Watson Pragmatic algorithms.60 The fitting of the curve was chosen to keep the root mean square error between 1.0 and 2.0, alongside with good fitting visual model."}, "CH1/PA‐1 [4]": {"system": "CH1/PA‐1", "assay": "Cell cycle distribution, flow cytometry with propidium iodide", "conditions": "for Cell cycle distribution G1, % / Cell cycle distribution G2/M, % / Cell cycle distribution S, %: 24 h, mean ± SD; for Relative change in cell cycle distribution G1, % / Relative change in cell cycle distribution G2/M, % / Relative change in cell cycle distribution S, %: difference to untreated control", "description": "as §2, §3"}},
  "data": [
    {"compound": "Cc1c(O)c(=S)ccn1C", "note": "[Compound 2 a, 3‐hydroxy‐1,2‐dimethylpyridine‐4(1H)‐thione]", "values": [
      {"measurement": "IC50", "setting": "SW480 [1]", "value": "3.2 ± 0.3", "unit": "µM"},
      {"measurement": "IC50", "setting": "CH1/PA‐1 [2]", "value": "15 ± 1", "unit": "µM"},
      {"measurement": "IC50", "setting": "A549", "value": "66 ± 6", "unit": "µM"},
      {"measurement": "Cell cycle distribution G1, %", "setting": "SW480 [3]; SW480, 5 µM", "value": "45 ± 1", "unit": "%"},
      {"measurement": "Cell cycle distribution G2/M, %", "setting": "SW480 [3]; SW480, 5 µM", "value": "23 ± 0", "unit": "%"},
      {"measurement": "Cell cycle distribution S, %", "setting": "SW480 [3]; SW480, 5 µM", "value": "32 ± 2", "unit": "%"},
      {"measurement": "Relative change in cell cycle distribution G1, %", "setting": "SW480 [3]; SW480, 5 µM", "value": -3, "unit": "%"},
      {"measurement": "Relative change in cell cycle distribution G2/M, %", "setting": "SW480 [3]; SW480, 5 µM", "value": 4, "unit": "%"},
      {"measurement": "Relative change in cell cycle distribution S, %", "setting": "SW480 [3]; SW480, 5 µM", "value": -1, "unit": "%"},
      {"measurement": "Cell cycle distribution G1, %", "setting": "SW480 [3]; SW480, 10 µM", "value": "41 ± 1", "unit": "%"},
      {"measurement": "Cell cycle distribution G2/M, %", "setting": "SW480 [3]; SW480, 10 µM", "value": "24 ± 1", "unit": "%"},
      {"measurement": "Cell cycle distribution S, %", "setting": "SW480 [3]; SW480, 10 µM", "value": "35 ± 2", "unit": "%"},
      {"measurement": "Relative change in cell cycle distribution G1, %", "setting": "SW480 [3]; SW480, 10 µM", "value": -7, "unit": "%"},
      {"measurement": "Relative change in cell cycle distribution G2/M, %", "setting": "SW480 [3]; SW480, 10 µM", "value": 5, "unit": "%"},
      {"measurement": "Relative change in cell cycle distribution S, %", "setting": "SW480 [3]; SW480, 10 µM", "value": 2, "unit": "%"},
      {"measurement": "Cell cycle distribution G1, %", "setting": "SW480 [3]; SW480, 20 µM", "value": "44 ± 3", "unit": "%"},
      {"measurement": "Cell cycle distribution G2/M, %", "setting": "SW480 [3]; SW480, 20 µM", "value": "22 ± 2", "unit": "%"},
      {"measurement": "Cell cycle distribution S, %", "setting": "SW480 [3]; SW480, 20 µM", "value": "33 ± 2", "unit": "%"},
      {"measurement": "Relative change in cell cycle distribution G1, %", "setting": "SW480 [3]; SW480, 20 µM", "value": -4, "unit": "%"},
      {"measurement": "Relative change in cell cycle distribution G2/M, %", "setting": "SW480 [3]; SW480, 20 µM", "value": 3, "unit": "%"},
      {"measurement": "Relative change in cell cycle distribution S, %", "setting": "SW480 [3]; SW480, 20 µM", "value": 0, "unit": "%"},
      {"measurement": "Cell cycle distribution G1, %", "setting": "CH1/PA‐1 [4]; CH1/PA-1, 5 µM", "value": "33 ± 4", "unit": "%"},
      {"measurement": "Cell cycle distribution G2/M, %", "setting": "CH1/PA‐1 [4]; CH1/PA-1, 5 µM", "value": "27 ± 5", "unit": "%"},
      {"measurement": "Cell cycle distribution S, %", "setting": "CH1/PA‐1 [4]; CH1/PA-1, 5 µM", "value": "40 ± 3", "unit": "%"},
      {"measurement": "Relative change in cell cycle distribution G1, %", "setting": "CH1/PA‐1 [4]; CH1/PA-1, 5 µM", "value": -7, "unit": "%"},
      {"measurement": "Relative change in cell cycle distribution G2/M, %", "setting": "CH1/PA‐1 [4]; CH1/PA-1, 5 µM", "value": 3, "unit": "%"},
      {"measurement": "Relative change in cell cycle distribution S, %", "setting": "CH1/PA‐1 [4]; CH1/PA-1, 5 µM", "value": 4, "unit": "%"},
      {"measurement": "Cell cycle distribution G1, %", "setting": "CH1/PA‐1 [4]; CH1/PA-1, 10 µM", "value": "33 ± 4", "unit": "%"},
      {"measurement": "Cell cycle distribution G2/M, %", "setting": "CH1/PA‐1 [4]; CH1/PA-1, 10 µM", "value": "26 ± 6", "unit": "%"},
      {"measurement": "Cell cycle distribution S, %", "setting": "CH1/PA‐1 [4]; CH1/PA-1, 10 µM", "value": "41 ± 8", "unit": "%"},
      {"measurement": "Relative change in cell cycle distribution G1, %", "setting": "CH1/PA‐1 [4]; CH1/PA-1, 10 µM", "value": -7, "unit": "%"},
      {"measurement": "Relative change in cell cycle distribution G2/M, %", "setting": "CH1/PA‐1 [4]; CH1/PA-1, 10 µM", "value": 2, "unit": "%"},
      {"measurement": "Relative change in cell cycle distribution S, %", "setting": "CH1/PA‐1 [4]; CH1/PA-1, 10 µM", "value": 5, "unit": "%"},
      {"measurement": "Cell cycle distribution G1, %", "setting": "CH1/PA‐1 [4]; CH1/PA-1, 20 µM", "value": "35 ± 3", "unit": "%"},
      {"measurement": "Cell cycle distribution G2/M, %", "setting": "CH1/PA‐1 [4]; CH1/PA-1, 20 µM", "value": "28 ± 4", "unit": "%"},
      {"measurement": "Cell cycle distribution S, %", "setting": "CH1/PA‐1 [4]; CH1/PA-1, 20 µM", "value": "37 ± 9", "unit": "%"},
      {"measurement": "Relative change in cell cycle distribution G1, %", "setting": "CH1/PA‐1 [4]; CH1/PA-1, 20 µM", "value": -5, "unit": "%"},
      {"measurement": "Relative change in cell cycle distribution G2/M, %", "setting": "CH1/PA‐1 [4]; CH1/PA-1, 20 µM", "value": 4, "unit": "%"},
      {"measurement": "Relative change in cell cycle distribution S, %", "setting": "CH1/PA‐1 [4]; CH1/PA-1, 20 µM", "value": 1, "unit": "%"}
    ]}
  ]
}
